One test addresses sigma receptor. As to the kind of experiment: Affinity for the sigma receptor, DTG binding to calf hippocampus membranes. The following applies: 3-di-o-tolyl-guanidine (DTG), Ki calculated from IC50. The protocol:
3.) Affinity for the sigma receptor The sigma receptor binding test is described in detail by E. Weber et al. (1986), Proc. Natl. Acad. Sci. 83, 8784-8788 and M. P. Kavanaugh et al., (1988), Proc. Natl. Acad. Sci. 85, 2844. […] In this binding test, IC50 values which indicate the test substance concentration at which 50% of the binding of the radioligand is suppressed are determined. The inhibition constants Ki are calculated from these taking into account the dissociation constants and the concentration of radioligands.

In a further test the target is 5-HT1 receptor. As to the kind of experiment: Affinity for the 5-HT1 receptor, 3H-serotonin binding to calf hippocampus membranes. As to conditions: 3H-serotonin radioligand. An excerpt:
1.) Affinity for the 5-HT1 receptor
The high affinity of the compounds according to the invention for 5-hydroxytryptamine receptors of the sub-type 1 is shown by way of example in Table A. The values given are data which have been determined from receptor binding studies using calf hippocampus membrane preparations. ^3 H-Serotonin was used as the radioactively labelled ligand for this.

The next test concerns the target T1, 5-HT1A receptor (Bos taurus, UniProt F6Q2H9).
T1 construct: 5-HT1A receptors in calf hippocampus membranes; from tissue; host or cells: calf hippocampus membranes
T1 sequence (F6Q2H9 1-422): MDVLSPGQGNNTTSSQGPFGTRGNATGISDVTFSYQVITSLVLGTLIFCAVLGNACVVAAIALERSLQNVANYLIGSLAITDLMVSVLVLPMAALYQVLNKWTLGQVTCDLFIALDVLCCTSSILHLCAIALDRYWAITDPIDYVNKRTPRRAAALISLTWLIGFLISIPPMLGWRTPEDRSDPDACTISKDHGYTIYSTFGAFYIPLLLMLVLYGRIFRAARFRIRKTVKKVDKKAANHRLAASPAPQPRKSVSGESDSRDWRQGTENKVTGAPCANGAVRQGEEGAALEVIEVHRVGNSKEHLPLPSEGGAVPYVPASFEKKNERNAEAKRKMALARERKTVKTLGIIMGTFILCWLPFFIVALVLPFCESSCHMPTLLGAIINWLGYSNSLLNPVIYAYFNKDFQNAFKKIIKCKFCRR
As to the kind of experiment: Affinity for the 5-HT1A receptor, 3H-ipsapiron binding to calf hippocampus membranes. As to conditions: 3H-ipsapiron radioligand. The procedure:
2.) Affinity for the 5-HT1A receptor [W. U. Dompert et al., Naunyn-Schmeideberg's Arch. Pharmacol. (1985), 328, 467-470]. In this test, the binding of ^3 H-ipsapiron to 5-HT1A receptors in calf hippocampus membranes is measured.

Structures can show the parent of a compound that is named as a salt.

In general, Ki refers to a dissociation constant, usually derived from enzyme kinetics or from competition with a known ligand. `c1ccc2c(c1)CC[C@@H](CNCC1CCCCCC1)O2` [Example 1, S-(+)-2-(N-Cycloheptylmethyl)aminomethyl-chroman hydrochloride]: the Ki at sigma receptor was 7 nM.

As for `COc1cccc2c1O[C@@H](CN(C)CC1CCCCCC1)CC2` [Example 13, 2-(R)-2-(N-Cycloheptylmethyl-N-methyl)aminomethyl-8-methoxy-chroman hydrochloride], the figures for the Ki on sigma receptor and at 5-HT1 receptor were 5 nM and 36 nM, respectively.

`COc1cccc2c1OC(CNCC1CCCCC1)CC2` (stereo not drawn) [Example 17, N-Cyclohexylmethyl-2-aminomethyl-8-methoxychroman hydrochloride]: the results for the inhibitory constant (Ki) on sigma receptor and on 5-HT1A receptor were 8 nM and 0.7 nM, respectively.

For `CC(CCCNCC1CCc2ccccc2O1)c1ccccc1` (stereo not drawn) [Example 18], on 5-HT1 receptor, the inhibition constant Ki came to 3 nM.

On 5-HT1 receptor, `COc1cccc2c1OC(CNCc1ccc(C(F)(F)F)cc1)CC2` (stereo not drawn) [Example 22] registered a Ki of 6 nM.

Turning to `COc1ccc(CNCC2CCc3cccc(OC)c3O2)cc1` (stereo not drawn) [Example 23], the values for the Ki on sigma receptor and on 5-HT1 receptor were 30 nM and 5 nM, respectively.

On 5-HT1A receptor, `c1ccc2c(c1)CCC(CNCC1CC1)O2` (stereo not drawn) [Example 28] gave a Ki of 2.3 nM.

Regarding `c1ccc2c(c1)CCC(CNCC13CC4CC(CC(C4)C1)C3)O2` (stereo not drawn) [Example 31], the Ki at sigma receptor was 16 nM; on 5-HT1A receptor, 4.2 nM.

`CN(CC1CCN(Cc2ccccc2)CC1)CC1CCc2ccccc2O1` (stereo not drawn) [Example 35] registered a Ki at 5-HT1A receptor of 28 nM.

For the compound `c1ccc(CN2CCC(CNCC3CCc4ccccc4O3)CC2)cc1` (stereo not drawn) [Example 36], the Ki at sigma receptor was 25 nM; at 5-HT1A receptor, 0.5 nM.

The values are drawn from patent US5962513A, “2-aminomethyl-chromans effective in the treatment of psychoses and depression” (Bayer Aktiengesellschaft, priority 1991, dated 1999).
